This note sets out measurements from patent publication US20260200943A1, “COMPOUNDS FOR TREATING CANCER” (Genesis Therapeutics, Inc., priority 2022, published 2026).

What all share (assay type): biochemical
The target in test [1] is T1, CDK9/CyclinT1 (Homo sapiens, UniProt P50750). Nature of the test: CDK9/CyclinT1 Mobility Shift Assay (Caliper, Table B). More on the design: Wild-type, full length CDK9 in complex with wildtype, CyclinT1 (1-259): Biortus Cat #BP480/792/691; purchased Biortus BP480/792/691. The settings on record: read-out: CDK9/Cyclin T1 Caliper Ki: Average Ki. Put shortly:
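Full-length wild-type CDK9 with CyclinT1 (1-259) and fluorescent peptide substrate, pre-incubated with compound 30 min at room temperature in Hepes/Brij-35/MgCl2/EGTA/BSA/DTT buffer; ATP added, 30 min reaction, EDTA stop. Substrate/product separated by microfluidic mobility shift; percent inhibition fit to four-parameter curve, IC50 converted to Ki by Cheng-Prusoff using Kmapp.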

In test [2] the target is T1, CDK9/CyclinT1. The test can be described thus: CDK9/CyclinT1 ChEF Assay (AQT, Table C). More on the design: Wild-type, full length CDK9 in complex with wildtype, CyclinT1 (1-259): Biortus Cat #BP480/792/691; purchased Biortus BP480/792/691. The settings on record: 10XKm. As to the method:
16 nL of 1000× compound in 100% DMSO is added to a 384-well low volume, black assay plate. 12 μL of 1.3×CDK9/CyclinT1 (Wild-type, full length CDK9 in complex with wildtype, CyclinT1 (1-259): Biortus Cat #BP480/792/691) diluted in assay buffer (54 mM Hepes, 0.012% Brij-35, 10 mM MgCl2, 0.55 mM EGTA, 1% Glycerol, 0.02% BSA, and 1.2 mM DTT) is added to the plates on top of the compound and pre-incubated for 30 minutes at room temperature. Following the incubation, 4 μL of 4×Sox-chromophore (CSox) labeled peptide substrate (AQT0449, AssayQuant) & ATP diluted in assay buffer is added to the plate to initiate the reaction. The assay is incubated at room temperature for 180 min after initiation. The CSox peptide substrate is phosphorylated by CDK9/T1 upon ATP hydrolysis.
The fluorescent intensity measurement of the assay plate is read on a microplate reader once the assay is initiated and again at the completion of the assay. Phosphorylation of the CSox-based peptide substrate sensor results in an immediate increase in fluorescence. These raw fluorescence intensity values are normalized to calculate percent inhibition, which are fit to a four-parameter logistic curve and IC50 values are calculated. IC50 values are converted to Ki using substrate, KM^app values, and the Cheng-Prusoff equation.

The target in the next test is T2, CDK2/CyclinA2 (Homo sapiens, UniProt P24941).
T2 construct: Wild-type, full length CDK2 in complex with wildtype, full length CyclinA2: Carna Cat #04-103; purchased Carna 04-103
The test can be described thus: CDK2/Cyclin A2 Mobility Shift Assay (Caliper, Table B). To be noted: for Ki: Caliper mobility shift, 10xKm, read-out: CDK2/CCNA2 Caliper 10xKm Ki: Average Ki. Here is the method:
10 nL of 2000× compound in 100% DMSO is added to a 384-well polypropylene assay plate. 15 μL of 1.3×CDK2/A2 and 1.3× fluorescent substrate (Wild-type, full length CDK2 in complex with wildtype, full length CyclinA2: Carna Cat #04-103 and FL-Peptide 18: PerkinElmer Cat #760362) diluted in kinase buffer (50 mM Hepes, 0.01% Brij-35, 10 mM MgCl2, 1 mM EGTA, 0.05% BSA, and 2 mM DTT) is added to the plates on top of the compound, mixed, and pre-incubated for 30 minutes at room temperature. The fluorescently labeled peptide substrate is phosphorylated by CDK2/A2 upon ATP hydrolysis. Following the incubation, 5 μL of 4×ATP diluted in kinase buffer is added to the plate to initiate the reaction. Following the 30-minute incubation, the reaction is stopped by adding 75 μL of stopping buffer containing 0.5 M EDTA.
(§1) The assay plate is then read on a Lab Chip EZ Reader which separates the fluorescently labeled substrate and product peptides through a mobility difference. The phosphorylation of the substrate imparts a negative charge, which allows differences in separation as both are pulled through the microfluidic chip. The ratio of substrate and product values are used to generate percent conversion. These raw percent conversion values are normalized to calculate percent inhibition, which are fit to a four-parameter logistic curve and IC50 values are calculated. IC50 values are converted to Ki through using substrate and Km^app values, and the Cheng-Prusoff equation.

A further test addresses T3, CDK6/CyclinD3 (Homo sapiens, UniProt Q00534).
T3 construct: Wild-type, full length CDK6 in complex with wildtype, full length CyclinD3: Carna Cat #04-107; purchased Carna 04-107
The test can be described thus: CDK6/Cyclin D3 Mobility Shift Assay (Caliper, Table B). The settings on record: read-out: CDK6/CCND3 Caliper Ki: Average Ki. As to the method: 10 nL of 2000× compound in 100% DMSO is added to a 384-well polypropylene assay plate. 15 μL of 1.3×CDK6/D3 and 1.3× fluorescent substrate (Wild-type, full length CDK6 in complex with wildtype, full length CyclinD3: Carna Cat #04-107 and FL-Peptide 34: PerkinElmer Cat #760643) diluted in kinase buffer (50 mM Hepes, 0.01% Brij-35, 10 mM MgCl2, 1 mM EGTA, 0.05% BSA, and 2 mM DTT) is added to the plates on top of the compound, mixed, and pre-incubated for 30 minutes at room temperature. The fluorescently labeled peptide substrate is phosphorylated by CDK6/D3 upon ATP hydrolysis. Following the incubation, 5 μL of 4×ATP diluted in kinase buffer is added to the plate to initiate the reaction. Following the 30-minute incubation, the reaction is stopped by adding 75 μL of stopping buffer containing 0.5 M EDTA.
as §1

The structures appear in SMILES notation.

T1 sequence (P50750 whole entry): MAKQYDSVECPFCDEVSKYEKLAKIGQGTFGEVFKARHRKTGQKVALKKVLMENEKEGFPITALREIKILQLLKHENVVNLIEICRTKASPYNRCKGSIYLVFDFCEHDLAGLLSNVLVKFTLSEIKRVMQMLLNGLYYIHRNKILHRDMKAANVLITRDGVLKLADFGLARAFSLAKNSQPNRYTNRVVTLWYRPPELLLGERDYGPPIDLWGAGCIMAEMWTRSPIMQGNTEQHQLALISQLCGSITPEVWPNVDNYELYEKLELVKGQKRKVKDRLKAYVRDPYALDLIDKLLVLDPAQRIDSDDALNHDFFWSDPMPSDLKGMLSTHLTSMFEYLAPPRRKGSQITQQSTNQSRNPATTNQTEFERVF
T1 sequence (O60563 1-259 partner limits assumed): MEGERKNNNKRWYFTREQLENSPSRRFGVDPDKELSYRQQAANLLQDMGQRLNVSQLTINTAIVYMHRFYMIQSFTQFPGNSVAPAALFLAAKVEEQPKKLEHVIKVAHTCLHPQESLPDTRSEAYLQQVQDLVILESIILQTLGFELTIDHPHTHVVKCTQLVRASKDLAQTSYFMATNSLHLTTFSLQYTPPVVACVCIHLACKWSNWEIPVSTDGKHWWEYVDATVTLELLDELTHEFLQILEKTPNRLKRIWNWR
T3 sequence (Q00534 whole entry): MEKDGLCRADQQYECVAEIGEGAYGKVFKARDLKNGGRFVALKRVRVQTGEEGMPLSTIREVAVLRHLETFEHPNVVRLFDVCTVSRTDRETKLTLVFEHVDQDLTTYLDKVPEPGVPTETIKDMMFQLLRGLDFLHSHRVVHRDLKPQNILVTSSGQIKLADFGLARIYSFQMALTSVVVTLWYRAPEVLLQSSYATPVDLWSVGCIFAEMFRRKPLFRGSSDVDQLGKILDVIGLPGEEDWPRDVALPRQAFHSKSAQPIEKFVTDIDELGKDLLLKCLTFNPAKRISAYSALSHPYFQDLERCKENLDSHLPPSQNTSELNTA
T3 sequence (P30281 whole entry partner): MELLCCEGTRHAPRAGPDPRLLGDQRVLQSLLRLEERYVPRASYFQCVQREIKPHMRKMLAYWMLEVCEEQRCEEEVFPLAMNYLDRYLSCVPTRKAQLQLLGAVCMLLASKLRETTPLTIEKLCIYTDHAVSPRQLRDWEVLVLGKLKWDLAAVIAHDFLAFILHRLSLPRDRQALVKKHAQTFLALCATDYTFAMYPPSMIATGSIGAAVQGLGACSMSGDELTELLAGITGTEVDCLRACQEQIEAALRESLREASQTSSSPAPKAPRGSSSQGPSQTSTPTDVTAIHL

As to `NS(=O)(=O)c1ccc2cc1OCCCCCNC(=O)O[C@@H]1CC[C@@H](C1)c1cnc(nc1)N2` (stereo in doubt) [Compound 105, rel-(2S,5R)-7-oxo-6,14-dioxa-8,20,22,25-tetraazatetracyclo[19.2.2.1^{2,5}.1^{15,19}]heptacosa-1(23),15,17,19(26),21,24-hexaene-16-sulfonamide], the Ki at CDK9/CyclinT1 [1] was ≥ 100 nM; at CDK9/CyclinT1 [2], 25 to 100 nM.

On to `O=C1NCCOCCNS(=O)(=O)c2ccc(c(F)c2)Nc2cc([nH]n2)[C@H]2CC[C@H](C2)O1` [Compound 89, (1^1S,1^3R,Z)-4^2-Fluoro-2^1H-9,14-dioxa-5-thia-3,6,12-triaza-2(5,3)-pyrazola-4(1,4)-benzena-1(1,3)-cyclopentanacyclotetradecaphan-13-one 5,5-dioxide], for which, on CDK2/CyclinA2, the Ki lay in the range of 1 to 25 nM, the “CDK2/CCNA2 Caliper 10xKm Ki: CDK2/A2 Selectivity over CDK1/B1” value is “A (A>10)” and the “CDK2/CCNA2 Caliper 10xKm Ki: CDK2/A2 Selectivity over CDK9” value is given as “A (A>10)”. Besides, on CDK9/CyclinT1 [1], the Ki is 1 to 25 nM.

For the compound `O=C1NCCCCCNS(=O)(=O)c2ccc(c(F)c2)Nc2cc([nH]n2)[C@H]2CC[C@H](C2)O1` [Compound 90, (1^1S,1^3R,Z)-4^2-fluoro-2^1H-14-oxa-5-thia-3,6,12-triaza-2(5,3)-pyrazola-4(1,4)-benzena-1(1,3)-cyclopentanacyclotetradecaphan-13-one 5,5-dioxide], on CDK2/CyclinA2, the Ki lay in the range of 1 to 25 nM, the “CDK2/CCNA2 Caliper 10xKm Ki: CDK2/A2 Selectivity over CDK1/B1” value was “A (A>10)” and the “CDK2/CCNA2 Caliper 10xKm Ki: CDK2/A2 Selectivity over CDK9” value is recorded as “A (A>10)”. Also, the Ki at CDK9/CyclinT1 [1] lay within 25 to 100 nM.

With `O=C1NCCCCCCCNS(=O)(=O)c2ccc(c(F)c2)Nc2cc([nH]n2)[C@H]2CC[C@H](C2)O1` [Compound 92], at CDK2/CyclinA2, the Ki was < 1 nM, the “CDK2/CCNA2 Caliper 10xKm Ki: CDK2/A2 Selectivity over CDK1/B1” value is “A (A>10)”, the “CDK2/CCNA2 Caliper 10xKm Ki: CDK2/A2 Selectivity over CDK6/D3” value is on record as “A (A>10)” and the “CDK2/CCNA2 Caliper 10xKm Ki: CDK2/A2 Selectivity over CDK9” value was “A (A>10)”. Besides, the Ki at CDK6/CyclinD3 lay in the range of 25 to 100 nM. The Ki at CDK9/CyclinT1 [1] lay within 25 to 100 nM.

With `O=C1NCCCn2cc(cn2)S(=O)(=O)N2CCC(CC2)Nc2cc([nH]n2)[C@H]2CC[C@H](C2)O1` [Compound 95, (1^1S, 1^3R,2^4Z,6^4E)-2^1H,6^1H-12-oxa-5-thia-3,10-diaza-4(4,1)-piperidina-2(5,3),6(4,1)-dipyrazola-1(1,3)-cyclopentanacyclododecaphan-11-one 5,5-dioxide], at CDK2/CyclinA2, the Ki lay in the range of 25 to 100 nM, the “CDK2/CCNA2 Caliper 10xKm Ki: CDK2/A2 Selectivity over CDK1/B1” value is “B (5≤B<10)” and the “CDK2/CCNA2 Caliper 10xKm Ki: CDK2/A2 Selectivity over CDK9” value is recorded as “B (5≤B<10)”. Besides, the Ki on CDK9/CyclinT1 [1] is ≥ 100 nM.

Turning to `O=C1NCCCCCn2cc(cn2)S(=O)(=O)N2CCC(CC2)Nc2cc([nH]n2)[C@H]2CC[C@H](C2)O1` [Compound 96, (1^1S,1^3R,2^4Z,6^4E)-2^1H,6^1H-14-oxa-5-thia-3,12-diaza-4(4,1)-piperidina-2(5,3),6(4,1)-dipyrazola-1(1,3)-cyclopentanacyclotetradecaphan-13-one 5,5-dioxide], at CDK2/CyclinA2, the Ki lay in the range of 1 to 25 nM, the “CDK2/CCNA2 Caliper 10xKm Ki: CDK2/A2 Selectivity over CDK1/B1” value is on record as “A (A>10)” and the “CDK2/CCNA2 Caliper 10xKm Ki: CDK2/A2 Selectivity over CDK9” value is reported as “A (A>10)”. Moreover, the Ki on CDK9/CyclinT1 [1] is ≥ 100 nM.

For the compound `O=C1NCCCCCCn2cc(cn2)S(=O)(=O)N2CCC(CC2)Nc2cc([nH]n2)[C@H]2CC[C@H](C2)O1` [Compound 97, (1^1S,1^3R,2^4Z,6^4E)-2^1H,6^1H-15-oxa-5-thia-3,13-diaza-4(4,1)-piperidina-2(5,3),6(4,1)-dipyrazola-1(1,3)-cyclopentanacyclopentadecaphan-14-one 5,5-dioxide], at CDK2/CyclinA2, the Ki is 1 to 25 nM, the “CDK2/CCNA2 Caliper 10xKm Ki: CDK2/A2 Selectivity over CDK1/B1” value is recorded as “A (A>10)” and the “CDK2/CCNA2 Caliper 10xKm Ki: CDK2/A2 Selectivity over CDK9” value was “A (A>10)”. Also, on CDK9/CyclinT1 [1], the Ki was ≥ 100 nM. In addition, the Ki at CDK9/CyclinT1 [2] was in the range of 25 to 100 nM.

Regarding `O=C1NCCCNS(=O)(=O)c2ccc(c(F)c2)Nc2cc([nH]n2)[C@H]2CC[C@H](C2)O1` [Compound 98, (1^1S, 1^3R,Z)-4^2-fluoro-2^1H-12-oxa-5-thia-3,6, 10-triaza-2(5,3)-pyrazola-4(1,4)-benzena-1(1,3)-cyclopentanacyclododecaphan-11-one 5,5-dioxide], on CDK2/CyclinA2, the Ki is 25 to 100 nM, the “CDK2/CCNA2 Caliper 10xKm Ki: CDK2/A2 Selectivity over CDK1/B1” value is recorded as “A (A>10)” and the “CDK2/CCNA2 Caliper 10xKm Ki: CDK2/A2 Selectivity over CDK9” value is given as “A (A>10)”. The Ki at CDK9/CyclinT1 [1] is ≥ 100 nM.

In the case of `O=C1NCCCCNS(=O)(=O)c2ccc(c(F)c2)Nc2cc([nH]n2)[C@H]2CC[C@H](C2)O1` [Compound 99, (1^1S, 1^3R,Z)-4^2-fluoro-2^1H-13-oxa-5-thia-3,6,11-triaza-2(5,3)-pyrazola-4(1,4)-benzena-1(1,3)-cyclopentanacyclotridecaphan-12-one 5,5-dioxide], at CDK2/CyclinA2, the Ki is < 1 nM, the “CDK2/CCNA2 Caliper 10xKm Ki: CDK2/A2 Selectivity over CDK1/B1” value is recorded as “A (A>10)”, the “CDK2/CCNA2 Caliper 10xKm Ki: CDK2/A2 Selectivity over CDK6/D3” value is “A (A>10)” and the “CDK2/CCNA2 Caliper 10xKm Ki: CDK2/A2 Selectivity over CDK9” value was “A (A>10)”. The Ki on CDK6/CyclinD3 fell in the range of 25 to 100 nM. For the same compound, the Ki at CDK9/CyclinT1 [1] was ≥ 100 nM.

On to `CN1CCNC(=O)O[C@@H]2CC[C@@H](C2)c2cc(n[nH]2)Nc2ccc(cc2F)S(=O)(=O)NCC1` [Compound 100, (1^1S, 1^3R,Z)-4^2-fluoro-9-methyl-2^1H-14-oxa-5-thia-3,6,9,12-tetraaza-2(5,3)-pyrazola-4(1,4)-benzena-1(1,3)-cyclopentanacyclotetradecaphan-13-one 5,5-dioxide], for which, at CDK2/CyclinA2, the Ki lay in the range of 1 to 25 nM, the “CDK2/CCNA2 Caliper 10xKm Ki: CDK2/A2 Selectivity over CDK1/B1” value is reported as “A (A>10)” and the “CDK2/CCNA2 Caliper 10xKm Ki: CDK2/A2 Selectivity over CDK9” value is “A (A>10)”. For the same compound, on CDK9/CyclinT1 [1], the Ki is ≥ 100 nM.

For `CC1(C)CCCNS(=O)(=O)c2ccc(c(F)c2)Nc2cc([nH]n2)[C@H]2CC[C@H](C2)OC(=O)N1` [Compound 101, (1^1S,1^3R,Z)-4^2-fluoro-10,10-dimethyl-2^1H-13-oxa-5-thia-3,6,11-triaza-2(5,3)-pyrazola-4(1,4)-benzena-1(1,3)-cyclopentanacyclotridecaphan-12-one 5,5-dioxide], on CDK2/CyclinA2, the Ki lay in the range of 1 to 25 nM, the “CDK2/CCNA2 Caliper 10xKm Ki: CDK2/A2 Selectivity over CDK1/B1” value was “A (A>10)” and the “CDK2/CCNA2 Caliper 10xKm Ki: CDK2/A2 Selectivity over CDK9” value is recorded as “A (A>10)”. On CDK9/CyclinT1 [1], the Ki is ≥ 100 nM.
